The numbers were not newly measured in patent publication US20050221347A1, “Inhibitors of binding between proteins and macromolecular ligands” (Thrasos, Inc., priority 1999, published 2005), which cites them from elsewhere.

The data set deals with alpha subunit of the interleukin-2 receptor (Homo sapiens, UniProt P60568).
alpha subunit of the interleukin-2 receptor, sequence (P60568 21-153): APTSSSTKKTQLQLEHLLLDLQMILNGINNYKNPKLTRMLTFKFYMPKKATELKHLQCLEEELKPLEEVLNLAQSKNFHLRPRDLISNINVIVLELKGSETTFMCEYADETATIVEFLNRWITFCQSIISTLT

For `COC(=O)[C@H](Cc1ccc(C#Cc2ccccc2)cc1)NC(=O)C[C@H]1CCCN(C(=N)N)C1` [Structural Formula (I)], the Kd (as a rule, the constant that tells how readily two partners part at equilibrium) (binding to the alpha subunit of the interleukin-2 receptor, described in Tilley et al., J. Am. Chem. Soc 119:7589 (1997)) was around 3 µM. The “inhibition of binding of interleukin 2 to the interleukin-2 receptor” value (result in words, Tilley et al. 1997) was “inhibits the binding of interleukin 2”.
